According to patent publication US20170022171A1, “2,5-DISUBSTITUTED CYCLOPENTANECARBOXYLIC ACIDS AND THEIR USE” (Bayer Pharma Aktiengesellschaft, priority 2014, published 2017):

Target: T1, human macrophage elastase (HME/hMMP-12) (Homo sapiens, UniProt P39900)
T1 construct: 0.5 nM HME; purchased R&D Systems 917-MP
Assay: In vitro HME inhibition test (standard or high-sensitivity)
Type: biochemical
Conditions: in some cases mean values
Description: The potency of the compounds according to the invention with respect to HME (MMP-12) is determined in an in vitro inhibition test. The HME-mediated amidolytic cleavage of a suitable peptide substrate leads to an increase in fluorescent light therein. The signal intensity of the fluorescent light is directly proportional to the enzyme activity. The active concentration of a test compound at which half the enzyme is inhibited (50% signal intensity of the fluorescent light) is reported as the IC50 value.
In a 384 hole microtiter plate, in a total test volume of 41 the test buffer (0.1 M HEPES pH 7.4, 0.15 M NaCl, 0.03 M CaCl2, 0.004 mM ZnCl2, 0.02 M EDTA, 0.005% Brij®), the enzyme (0.5 nM HME; from R&D Systems, 917-MP, autocatalytic activation according to the manufacturer's instructions) and the intramolecularly quenched substrate [5 μM Mca-Pro-Leu-Gly-Leu-Glu-Glu-Ala-Dap(Dnp)-NH2; Bachem, M-2670] are incubated in the absence and presence of the test substance (as a solution in DMSO) at 37° C. for two hours. The fluorescence intensity of the test mixtures is measured (excitation […], emission 393 nm). The IC50 values are ascertained by plotting the fluorescent light intensity against the active ingredient concentration.
In this case, an enzyme concentration ten times lower is used (final concentration, for example, 0.05 nM) in order to achieve an elevated test sensitivity. The incubation period chosen for the test is correspondingly longer (for example 16 hours).

T1 sequence (P39900 106-470): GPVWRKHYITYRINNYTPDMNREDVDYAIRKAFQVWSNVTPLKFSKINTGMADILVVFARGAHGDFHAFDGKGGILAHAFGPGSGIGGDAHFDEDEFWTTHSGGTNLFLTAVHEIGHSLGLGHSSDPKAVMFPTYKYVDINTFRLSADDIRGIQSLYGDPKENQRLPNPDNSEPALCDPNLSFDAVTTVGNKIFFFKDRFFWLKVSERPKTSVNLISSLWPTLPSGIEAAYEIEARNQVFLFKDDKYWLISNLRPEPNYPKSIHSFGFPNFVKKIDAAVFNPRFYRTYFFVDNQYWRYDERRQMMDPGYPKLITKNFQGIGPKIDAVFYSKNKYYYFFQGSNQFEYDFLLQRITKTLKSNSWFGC

SMILES	IC50
CCCCCCOc1ccc(C(=O)[C@H]2CC[C@@H](Cn3nnc4ccccc4c3=O)[C@@H]2C(=O)O)cc1 (racemic) [Example 6, (+/−)-(1RS,2RS,5SR)-2-[4-(Hexyloxy)benzoyl]-5-[(4-oxo-1,2,3-benzotriazin-3(4H)-yl)methyl]cyclopentanecarboxylic acid]	0.17 nM
CCCCCOc1ccc(C(=O)[C@H]2CC[C@@H](Cn3nnc4ccccc4c3=O)[C@@H]2C(=O)O)cc1 (racemic) [Example 7, (+/−)-(1RS,2SR,5RS)-2-[(4-Oxo-1,2,3-benzotriazin-3(4H)-yl)methyl]-5-[4-(pentyloxy)benzoyl]cyclopentanecarboxylic acid]	0.26 nM
CCCCOc1ccc(C(=O)[C@H]2CC[C@@H](Cn3nnc4ccccc4c3=O)[C@@H]2C(=O)O)cc1 (racemic) [Example 10, (+/−)-(1RS,2RS,5SR)-2-(4-Butoxybenzoyl)-5-[(4-oxo-1,2,3-benzotriazin-3 (4H)-yl)methyl]cyclopentanecarboxylic acid]	0.36 nM
O=C(O)[C@H]1[C@H](Cn2nnc3ccc(C(F)(F)F)cc3c2=O)CC[C@@H]1C(=O)c1ccc(OCc2cccc(Cl)c2)cc1 (racemic) [Example 21, (+/−)-(1RS,2RS,5SR)-2-{4-[(3-Chlorobenzyl)oxy]benzoyl}-5-{[4-oxo-6-(trifluoromethyl)-1,2,3-benzotriazin-3(4H)-yl]methyl}cyclopentanecarboxylic acid]	0.045 nM
O=C(O)[C@H]1[C@H](Cn2nnc3ccc(C(F)(F)F)cc3c2=O)CC[C@@H]1C(=O)c1ccc(OCc2cccc(N3CCOC3=O)c2)cc1 (racemic) [Example 33, (+/−)-(1RS,2RS,5SR)-2-(4-{[3-(2-Oxo-1,3-oxazolidin-3-yl)benzyl]oxy}benzoyl)-5-{[4-oxo-6-(trifluoromethyl)-1,2,3-benzotriazin-3 (4H)-yl]methyl}cyclopentanecarboxylic acid]	0.13 nM
O=C(O)[C@H]1[C@H](Cn2nnc3ccc(C(F)(F)F)cc3c2=O)CC[C@@H]1C(=O)c1ccc(OCCc2ccccc2)cc1 (racemic) [Example 36, (+/−)-(1RS,2SR,5RS)-2-{[4-Oxo-6-(trifluoromethyl)-1,2,3-benzotriazin-3(4H)-yl]methyl}-5-[4-(2-phenylethoxy)benzoyl]cyclopentanecarboxylic acid]	0.13 nM
O=C(O)[C@H]1[C@H](Cn2nnc3ccc(C(F)(F)F)cc3c2=O)CC[C@@H]1C(=O)c1ccc(OCC2CC2)cc1 (racemic) [Example 49, (+/−)-(1RS,2RS,5SR)-2-[4-(Cyclopropylmethoxy)benzoyl]-5-{[4-oxo-6-(trifluoromethyl)-1,2,3-benzotriazin-3(4H)-yl]methyl}cyclopentanecarboxylic acid]	0.14 nM
CCCCOc1ccc(C(=O)[C@H]2CC[C@@H](Cn3nnc4ccc(C(F)(F)F)cc4c3=O)[C@@H]2C(=O)O)cc1 (racemic) [Example 66, (+/−)-(1RS,2RS,5SR)-2-(4-Butoxybenzoyl)-5-{[4-oxo-6-(trifluoromethyl)-1,2,3-benzotriazin-3 (4H)-yl]methyl}cyclopentanecarboxylic acid]	0.043 nM
CCCOc1ccc(C(=O)[C@H]2CC[C@@H](Cn3nnc4ccc(C(F)(F)F)cc4c3=O)[C@@H]2C(=O)O)cc1 (racemic) [Example 69, (+/−)-(1RS,2SR,5RS)-2-{[4-Oxo-6-(trifluoromethyl)-1,2,3-benzotriazin-3(4H)-yl]methyl}-5-(4-propoxybenzoyl)cyclopentanecarboxylic acid]	0.094 nM
CC(C)COc1ccc(C(=O)[C@H]2CC[C@@H](Cn3nnc4ccc(C(F)(F)F)cc4c3=O)[C@@H]2C(=O)O)cc1 (racemic) [Example 72, (+/−)-(1RS,2RS,5SR)-2-(4-Isobutoxybenzoyl)-5-{[4-oxo-6-(trifluoromethyl)-1,2,3-benzotriazin-3(4H)-yl]methyl}cyclopentanecarboxylic acid]	0.13 nM
O=C(O)[C@H]1[C@H](Cn2nnc3ccc(C(F)(F)F)cc3c2=O)CC[C@@H]1C(=O)c1ccc(SCc2ccccc2)cc1 (racemic) [Example 73, (+/−)-(1RS,2RS,5SR)-2-[4-(Benzylsulphanyl)benzoyl]-5-{[4-oxo-6-(trifluoromethyl)-1,2,3-benzotriazin-3(4H)-yl]methyl}cyclopentanecarboxylic acid]	0.17 nM

These reach a lower IC50. Values come first.

IC50	SMILES
0.015 nM	O=C(O)[C@H]1[C@H](Cn2nnc3ccc(C(F)(F)F)cc3c2=O)CC[C@@H]1C(=O)c1ccc(OCc2ccc(Cl)cc2)cc1 (racemic) [Example 24, (+/−)-(1RS,2RS,5SR)-2-{4-[(4-Chlorobenzyl)oxy]benzoyl}-5-{[4-oxo-6-(trifluoromethyl)-1,2,3-benzotriazin-3(4H)-yl]methyl}cyclopentanecarboxylic acid]
0.032 nM	O=C(O)[C@H]1[C@H](Cn2nnc3ccc(C(F)(F)F)cc3c2=O)CC[C@@H]1C(=O)c1ccc(OCc2ccc(Cl)c(Cl)c2)cc1 (racemic) [Example 27, (+/−)-(1RS,2RS,5SR)-2-{4-[(3,4-Dichlorobenzyl)oxy]benzoyl}-5-{[4-oxo-6-(trifluoromethyl)-1,2,3-benzotriazin-3(4H)-yl]methyl}cyclopentanecarboxylic acid]
0.039 nM	O=C(O)[C@H]1[C@H](Cn2nnc3ccc(C(F)(F)F)cc3c2=O)CC[C@@H]1C(=O)c1ccc(OCC2CCCC2)cc1 (racemic) [Example 43, (+/−)-(1RS,2RS,5SR)-2-[4-(Cyclopentylmethoxy)benzoyl]-5-{[4-oxo-6-(trifluoromethyl)-1,2,3-benzotriazin-3(4H)-yl]methyl}cyclopentanecarboxylic acid]
0.034 nM	O=C(O)[C@H]1[C@H](Cn2nnc3ccc(C(F)(F)F)cc3c2=O)CC[C@@H]1C(=O)c1ccc(OCC2CCC2)cc1 (racemic) [Example 46, (+/−)-(1RS,2RS,5SR)-2-[4-(Cyclobutylmethoxy)benzoyl]-5-{[4-oxo-6-(trifluoromethyl)-1,2,3-benzotriazin-3(4H)-yl]methyl}cyclopentanecarboxylic acid]
0.036 nM	O=C(O)[C@H]1[C@H](Cn2nnc3ccc(C(F)(F)F)cc3c2=O)CC[C@@H]1C(=O)c1ccc(OCCC2CCCCC2)cc1 (racemic) [Example 50, (+/−)-(1RS,2RS,5SR)-2-[4-(2-Cyclohexylethoxy)benzoyl]-5-{[4-oxo-6-(trifluoromethyl)-1,2,3-benzotriazin-3(4H)-yl]methyl}cyclopentanecarboxylic acid]
0.027 nM	O=C(O)[C@H]1[C@H](Cn2nnc3ccc(C(F)(F)F)cc3c2=O)CC[C@@H]1C(=O)c1ccc(OCCC2CCCC2)cc1 (racemic) [Example 53, (+/−)-(1RS,2RS,5SR)-2-[4-(2-Cyclopentylethoxy)benzoyl]-5-{[4-oxo-6-(trifluoromethyl)-1,2,3-benzotriazin-3(4H)-yl]methyl}cyclopentanecarboxylic acid]
0.028 nM	CCCCCCOc1ccc(C(=O)[C@H]2CC[C@@H](Cn3nnc4ccc(C(F)(F)F)cc4c3=O)[C@@H]2C(=O)O)cc1 (racemic) [Example 57, (+/−)-(1RS,2RS,5SR)-2-[4-(Hexyloxy)benzoyl]-5-{[4-oxo-6-(trifluoromethyl)-1,2,3-benzotriazin-3(4H)-yl]methyl}cyclopentanecarboxylic acid]
0.015 nM	CCCCCOc1ccc(C(=O)[C@H]2CC[C@@H](Cn3nnc4ccc(C(F)(F)F)cc4c3=O)[C@@H]2C(=O)O)cc1 (racemic) [Example 63, (+/−)-(1RS,2SR,5RS)-2-{[4-Oxo-6-(trifluoromethyl)-1,2,3-benzotriazin-3(4H)-yl]methyl}-5-[4-(pentyloxy)benzoyl]cyclopentanecarboxylic acid]
